Measured values: publication PMC7029871, “Development and validation of a sensitive LC-MS/MS method for the quantitation of IMB-YH-4py5-2H, an antituberculosis candidate, and its application to the pharmacokinetic study” (PLoS ONE, 2020)

Experiments:
[1] = system: intracellular M. tuberculosis H37Rv; test: Intracellular activity assay in infected macrophages; assay type: cell-based, Mycobacterium tuberculosis; details: three-day incubation, infected J744 macrophages, untreated 6.47±0.04
[2] = design: method as in PMID 26579477; details: oral administration of 200 mg/kg; cited from earlier work
[3] = cited from earlier work

SMILES | Log10CFU ([1]; 0.5 μg/mL) [Log10CFU] | Log10CFU ([1]; 1 μg/mL) [Log10CFU] | Log10CFU ([1]; 2 μg/mL) [Log10CFU] | serum Cmax [2] | time until serum level decreased below the therapeutic range [2] | solubility [3]
NNC(=O)c1ccncc1 [Isoniazid, reference compound] | 4.60±0.05 | 3.57±0.06 | 4.01±0.14 |  |  | 
COC(=O)/C=C/C(=O)c1ccc(OC)cc1 [YH-8, (E)-Methyl-4-aryl-4-oxabut-2-enoate, reference compound] |  |  |  | lower than 0.5 μg/mL | less than 1 hour | poor solubility
